Reference: patent publication US7563592B2, “Alizarin-based chromogenic substrates, their uses and composition containing same” (Biomerieux, S.A., priority 1999, dated 2009)

Tests used:
Listeria innocua 036 = experiment: β-glucosidase detection in API strip wells (Example 6); settings: 0.12 g/l + iron citrate 0.05 g/l
[1] = system: Bacillus thuringiensis 072; experiment: as above; settings: 0.12 g/l + iron citrate 0.05 g/l; 24 H
[2] = system: Listeria monocytogenes 022; experiment: as above; settings: 0.12 g/l + iron citrate 0.05 g/l
[3] = system: Klebsiella pneumoniae 023; experiment: Comparison of glucoside substrates in semi-solid Columbia medium (Example 7); format: cell-based; settings: 0.05 g/l + iron citrate 0.05 g/l
Enterobacter cloacae = experiment: β-galactosidase detection on semi-solid medium, clinical and environmental strains (Example 2); format: cell-based; settings: 50 mg/l + iron citrate 500 mg/l; 18 hours; 21 strains tested
Serratia spp. = experiment: as above; format: cell-based; settings: 50 mg/l + iron citrate 500 mg/l; 18 hours; 14 strains tested
Serratia odorifera = experiment: as above; format: cell-based; settings: 50 mg/l + iron citrate 500 mg/l; 18 hours; 1 strain tested
Aeromonas hydrophila = experiment: as above; format: cell-based; settings: 50 mg/l + iron citrate 500 mg/l; 18 hours; 3 strains tested
Proteus vulgaris = experiment: as above; format: cell-based; settings: 50 mg/l + iron citrate 500 mg/l; 18 hours; 4 strains tested
Yersinia enterocolitica = experiment: as above; format: cell-based; settings: 50 mg/l + iron citrate 500 mg/l; 18 hours; 14 strains tested
Citrobacter diversus = experiment: as above; format: cell-based; settings: 50 mg/l + iron citrate 500 mg/l; 18 hours; 9 strains tested
[4] = system: β-galactosidase (EC 3.2.1.23 Sigma); experiment: Effect of pH on β-D-galactosidase detection, substrate 0.05 g/l in water (Example 4); format: biochemical
Procedure: To each of eighteen tubes containing 5 ml of osmotically purified water, the following were added Alizarin-2-β-D-galactoside (0.05 g/l) and 5 μl of β-galactosidase (EC 3.2.1.23 Sigma). Ammoniacal iron citrate (0.05 g/l) was added to half of these tubes. […] Finally, the pH of these tubes was adjusted to different values (2-3-4-5-6-7-8-9-10) at 24° C.

Providencia rettgeri = experiment: β-galactosidase detection on semi-solid medium, clinical and environmental strains (Example 2); format: cell-based; settings: 50 mg/l + iron citrate 500 mg/l; 18 hours; 3 strains tested
Serratia marcescens 042 = experiment: β-galactosidase detection in semi-solid Columbia medium (Example 1); format: cell-based

SMILES: O=C1c2ccccc2C(=O)c2c1ccc(O[C@@H]1O[C@H](CO)[C@@H](O)[C@H](O)[C@H]1O)c2O [Alizarin-2-β-D-glucoside]
- Color observed (Listeria innocua 036; 4 H): Purple
- Color observed (Listeria innocua 036; 24 H): Purple
- Color observed [1]: Purple
- Color observed ([2]; 4 H): Purple
- Color observed ([2]; 24 H): Purple
- Color ([3]; 18 H): Purple
- Intensity ([3]; 18 H): 3.5 arbitrary units
- Color ([3]; 24 H): Purple
- Intensity ([3]; 24 H): 4 arbitrary units
- Color ([3]; 48 H): Purple
- Intensity ([3]; 48 H): 4 arbitrary units

SMILES: O=C1c2ccccc2C(=O)c2c1ccc(O[C@@H]1O[C@H](CO)[C@H](O)[C@H](O)[C@H]1O)c2O [Alizarin-2-β-D-galactoside]
- percentage of positive strains (Enterobacter cloacae): 100%
- percentage of positive strains (Serratia spp.): 86%
- percentage of positive strains (Serratia odorifera): 100%
- percentage of positive strains (Aeromonas hydrophila): 100%
- percentage of positive strains (Proteus vulgaris): 0%
- percentage of positive strains (Yersinia enterocolitica): 64%
- percentage of positive strains (Citrobacter diversus): 89%
- color of the tubes after incubation, before pH adjustment ([4]; 4 hours at 37° C., no Ammoniacal iron citrate): light pink
- pink coloration of the tubes after incubation, before pH adjustment ([4]; 4 hours at 37° C., with Ammoniacal iron citrate 0.05 g/l, versus tubes without): more intense
- Color ([4]; pH 2, no iron): Yellow
- Color ([4]; pH 2, with iron (Ammoniacal iron citrate 0.05 g/l)): Yellow
- Color ([4]; pH 3, no iron): Yellow
- Color ([4]; pH 3, with iron (Ammoniacal iron citrate 0.05 g/l)): Yellow
- Color ([4]; pH 4, no iron): Yellow
- Color ([4]; pH 4, with iron (Ammoniacal iron citrate 0.05 g/l)): Yellow
- Color ([4]; pH 5, no iron): Yellow-Orange
- Color ([4]; pH 5, with iron (Ammoniacal iron citrate 0.05 g/l)): Yellow-Pink
- Color ([4]; pH 6, no iron): Pink-Orange
- Color ([4]; pH 6, with iron (Ammoniacal iron citrate 0.05 g/l)): Pink
- Color ([4]; pH 7, no iron): Pink-Orange
- Color ([4]; pH 7, with iron (Ammoniacal iron citrate 0.05 g/l)): Pink
- Color ([4]; pH 8, no iron): Pink
- Color ([4]; pH 8, with iron (Ammoniacal iron citrate 0.05 g/l)): Purple
- Color ([4]; pH 9, no iron): Purple
- Color ([4]; pH 9, with iron (Ammoniacal iron citrate 0.05 g/l)): Purple
- Color ([4]; pH 10, no iron): Mauve
- Color ([4]; pH 10, with iron (Ammoniacal iron citrate 0.05 g/l)): Mauve
- percentage of positive strains (Providencia rettgeri): 0%
- Color (Serratia marcescens 042; 0.01 g/l + iron citrate, 48 H): purple
- Intensity (Serratia marcescens 042; 0.01 g/l + iron citrate, 48 H): 0.3
- Color (Serratia marcescens 042; 0.03 g/l + iron citrate, 18 H): purple
- Intensity (Serratia marcescens 042; 0.03 g/l + iron citrate, 18 H): 0.5
- Color (Serratia marcescens 042; 0.03 g/l + iron citrate, 24 H): purple
- Intensity (Serratia marcescens 042; 0.03 g/l + iron citrate, 24 H): 1
- Color (Serratia marcescens 042; 0.03 g/l + iron citrate, 48 H): purple
- Intensity (Serratia marcescens 042; 0.03 g/l + iron citrate, 48 H): 1.7
- Color (Serratia marcescens 042; 0.05 g/l + iron citrate, 18 H): purple
- Intensity (Serratia marcescens 042; 0.05 g/l + iron citrate, 18 H): 1
- Color (Serratia marcescens 042; 0.05 g/l + iron citrate, 24 H): purple
- Intensity (Serratia marcescens 042; 0.05 g/l + iron citrate, 24 H): 2.5
- Color (Serratia marcescens 042; 0.05 g/l + iron citrate, 48 H): purple
- Intensity (Serratia marcescens 042; 0.05 g/l + iron citrate, 48 H): 3
- Color (Serratia marcescens 042; 0.08 g/l + iron citrate, 18 H): purple
- Intensity (Serratia marcescens 042; 0.08 g/l + iron citrate, 18 H): 2
- Color (Serratia marcescens 042; 0.08 g/l + iron citrate, 24 H): purple
- Intensity (Serratia marcescens 042; 0.08 g/l + iron citrate, 24 H): 2.5
- Color (Serratia marcescens 042; 0.08 g/l + iron citrate, 48 H): purple
- Intensity (Serratia marcescens 042; 0.08 g/l + iron citrate, 48 H): 3.5
